What was measured:
Assay type in all cases: cell-based, human
[1] = test system: A2E accumulated in ARPE-19 cells; experiment: Removal of intracellular A2E measured by HPLC/LC-MS; conditions: ARPE-19 loaded with 50 μM A2E 48 h; 10, 25, 50 μM, 24 h; FIG. 2
Text: In Table 1 and FIG. 1, in order to measure the reduction of intracellular A2E by compounds, A2E-fluorescent substance (A2E-BDP) that is easy to observe fluorescence was used. In previous research reports, A2E-BDP is known to have the same intracellular dynamics and characteristics as A2E, but since A2E is a substance that actually exists in a living body, the quantitative change in intracellular A2E was directly measured using the HPLC method as follows.
ARPE-19 cell lines were dispensed into 6-well plates at a concentration of 4×10^3 cells/well and cultured for 24 hours. ARPE-19 cell lines were treated with A2E at a concentration of 50 μM for 48 hours to accumulate A2E intracellularly. To evaluate the A2E removal ability, ARPE-19 cells containing A2E were treated with compound 17 of the present invention (10, 25, 50 μM) for 24 hours. Thereafter, ARPE-19 cells were washed with phosphate-buffered saline (PBS), and cell lysis buffer containing a protease inhibitor was added to prepare a cell lysate. Chloroform and methanol (2:1, vol/vol) were added to the sample obtained above, shaken to extract A2E, and then centrifuged at 10,000 g for 10 minutes. […] LC-MS (Shimadzu LC-MS 2010EV) analysis was performed using a C18 column ([…]) with acetonitrile and 0.1% formic acid (gradient, 0-100%, 0-10 min; flow rate 1.0 ml/min; monitored at 503 nm). […]

ARPE-19 cells = experiment: Inhibition of retinal pigment epithelial cell death induced by A2E and blue light
Method: A2E accumulated in human retinal pigment epithelial cells is known to induce cytotoxicity by blue light irradiation. Using a human retinal pigment epithelial cell line, the effect of the compound of the present invention on inhibiting cell death by blue light irradiation was measured.
The ARPE-19 cell line was dispensed into a 6-well plate at a concentration of 2×10^4 cells/well and cultured for 24 hours. In order to induce A2E accumulation in the ARPE-19 cell line, cells were treated with A2E three times at a concentration of 25 μM at 48-hour intervals. Twenty-four hours after the last A2E treatment, cells were treated with example 17 compound of the present invention twice at 24-hour intervals at concentrations of 10, 25, and 50 μM, respectively. After an additional 24 hours of culture, blue light (BL, 430 nm, 7500 lux) was irradiated for 30 minutes and cultured for 24 hours. Cell death was observed under a microscope, and the number of living cells was measured using Image J (National Institutes of Health, USA) to calculate the quantitative cell viability.

LC3-II = experiment: Autophagy activation in ARPE-19 (LC3-II Western, GFP-LC3 puncta); conditions: 12 h
Method: ARPE-19 was dispensed into a 6-well plate at a concentration of 1×10^5 cells/well and cultured for 24 hours. Then, cells were treated with example 17 compound of the present invention at concentrations of 10, 25, and 50 μM for 12 hours. Then, a cell lysis buffer containing a protease inhibitor was added to prepare a cell lysate. The LC3-II level was measured by Western immunoblotting using an anti-LC3-II antibody (Cell Signaling Technology, MA, USA). As an internal control, an antibody against β-actin (Cell Signaling Technology) was used and measured by Western immunoblotting in the same manner as above, and is shown in FIG. 6 (upper graph).
Meanwhile, intracellular autophagosome formation was observed as follows. The ARPE-19 cells were transfected with a plasmid expressing GFP-LC3 (Addgene Inc., MA, USA) using Lipofectamine™ 2000 reagent (Invitrogen, Carlsbad, CA, USA). After 48 hours of culture, the cells were treated with example 17 compound of the present invention at a concentration of 25 μM. After additional 12 hours of culture, the cells were fixed using 4% paraformaldehyde for 10 minutes. The cells were then washed three times with PBS every 5 minutes. Finally, the puncta formation of GFP-LC3 was observed using a confocal laser scanning microscope (Nikon, Tokyo, Japan). […]

A2E-BDP in ARPE-19 cells = experiment: A2E-BDP removal ability by concentration of other example compounds; conditions: indicated concentrations; FIG. 13
Method: The human retinal pigment epithelial cell line (ARPE-19) used in the experiment was provided by ATCC (American Type Culture Collection). The ARPE-19 cell line was cultured in DMEM medium containing 10% FBS. After culture, the cells were dispensed into 96-well plates at a concentration of 4×10^3 cells/well and cultured for 24 hours. The ARPE-19 cell line was treated with A2E-fluorescent labeling substance (A2E-BDP) at a concentration of 10 μM for 24 hours to induce the accumulation of A2E-BDP in the ARPE-19 cell line.
In order to evaluate the intracellular A2E removal ability of the compound of the present invention, an easily detectable A2E-fluorescent labeling substance (A2E-BDP) was used. The ARPE-19 cells prepared by the above method were treated with each test compound at a concentration of 50 μM once, and then cultured for 24 hours. The cells were lysed by adding a cell lysis buffer containing a protease inhibitor (50 mM Tris-chloride, pH 8.0, 150 mM sodium chloride, 1% NP-40, 1% sodium deoxycholate, 1% sodium dodecyl sulfate, and 2 mM ethylenediamine tetraacetic acid) to each 96-well. The prepared cell lysate was transferred to a white 96-well plate, and the fluorescence intensity was measured using a fluorescence microplate reader (VICTOR™ X3, Perkin Elmer, USA) (excitation 485 nm, emission 535 nm).
The A2E-fluorescent labeling substance (A2E-BDP) removal ability was evaluated according to Experimental Example 1 (except that the test compound was treated at the indicated concentration).

Compound: C=CCOCc1cc(-c2cc(CC=C)ccc2OC)no1 [Example 17, 3-(5-allyl-2-methoxyphenyl)-5-((allyloxy)methyl)isoxazole]
- amount of accumulated A2E (HPLC) [1]: significantly reduced in a concentration-dependent manner
- cell death induced by A2E and blue light (microscope) (ARPE-19 cells; A2E 25 μM x3, compound 10, 25, 50 μM twice, blue light 430 nm, 7500 lux, 30 min, FIG. 3 upper): cell death was significantly inhibited
- cell viability quantified using Image J (cell death by A2E and blue light) (ARPE-19 cells; same model, FIG. 3 lower): statistically significantly inhibited
- LC3-II level (Western immunoblotting) (LC3-II; ARPE-19, 10, 25, 50 μM, FIG. 6 graph): an increase in LC3-II
- puncta formation of GFP-LC3 (confocal microscope) (LC3-II; GFP-LC3 transfected ARPE-19, 25 μM, FIG. 6 photograph): intracellular LC3-II puncta were observed
- A2E-BDP removal ability by concentration (amount of A2E) (A2E-BDP in ARPE-19 cells): concentration-dependent decrease in the amount of A2E

Source: patent US20250214951A1, “3-PHENYLISOXAZOLE DERIVATIVE, AND PHARMACEUTICAL COMPOSITION FOR PREVENTING OR TREATING EYE DISEASE, CONTAINING SAME AS ACTIVE INGREDIENT” (VASTHERA CO., LTD., priority 2022, published 2025)
